pIC50: −log10 of the molar value. Values belong to the compound of their own block, whether it stands above or below them.
Columns and labels:
Topoisomerase IV = Topoisomerase IV (Staphylococcus aureus, UniProt P0C1S7+P0C1U9); test: Inhibition of Staphylococcus aureus RN4220 DNA topoisomerase 4 expressed in Escherichia coli BL21(DE3) cells using supercoiled pBR322 DNA as substrate by agarose gel electrophoresis method
[1] = Inhibition of Staphylococcus aureus N-terminal His6-tagged DNA gyrase B expressed in Escherichia coli BL21(DE3) cells using relaxed pBR322 DNA as substrate incubated for 1 hr by agarose gel electrophoresis method
[2] = Inhibition of Escherichia coli DNA topoisomerase 4 using supercoiled pBR322 DNA as substrate by agarose gel electrophoresis method
Staphylococcus aureus [3] = test: Antibacterial activity against Staphylococcus aureus assessed as reduction in microbial growth after 18 hrs by NCCLS based method; format: functional
Staphylococcus aureus [4] = test: Antibacterial activity against Staphylococcus aureus A798 assessed as reduction in microbial growth by CLSI based broth microdilution method; format: functional
Escherichia coli [5] = test: Antibacterial activity against Escherichia coli ATCC 25922 assessed as reduction in microbial growth by CLSI based broth microdilution method; format: functional
Escherichia coli [6] = test: Antibacterial activity against levofloxacin-susceptible Escherichia coli assessed as reduction in microbial growth by CLSI based broth microdilution method; format: functional
Escherichia coli [7] = test: Antibacterial activity against levofloxacin-nonsusceptible Escherichia coli assessed as reduction in microbial growth by CLSI based broth microdilution method; format: functional
Streptococcus pneumoniae [8] = test: Antibacterial activity against penicillin-resistant Streptococcus pneumoniae assessed as reduction in microbial growth by CLSI based broth microdilution method; format: functional
Staphylococcus aureus [9] = test: Antibacterial activity against methicillin-resistant Staphylococcus aureus assessed as reduction in microbial growth by CLSI based broth microdilution method; format: functional
Neisseria gonorrhoeae = test: Antibacterial activity against Neisseria gonorrhoeae assessed as reduction in microbial growth by agar dilution method; format: functional
Streptococcus pneumoniae [10] = test: Antibacterial activity against Streptococcus pneumoniae assessed as reduction in microbial growth by CLSI based broth microdilution method; format: functional
Staphylococcus aureus [11] = test: Antibacterial activity against levofloxacin-resistant Staphylococcus aureus assessed as reduction in microbial growth by CLSI based broth microdilution method; format: functional
Streptococcus pneumoniae [12] = test: Antibacterial activity against penicillin-susceptible Streptococcus pneumoniae assessed as reduction in microbial growth by CLSI based broth microdilution method; format: functional
Staphylococcus aureus [13] = test: Antibacterial activity against methicillin-sensitive Staphylococcus aureus assessed as reduction in microbial growth by CLSI based broth microdilution method; format: functional
Staphylococcus aureus [14] = test: Antibacterial activity against Staphylococcus aureus assessed as reduction in microbial growth by CLSI based broth microdilution method; format: functional
Streptococcus pneumoniae [15] = test: Antibacterial activity against penicillin-intermediate Streptococcus pneumoniae assessed as reduction in microbial growth by CLSI based broth microdilution method; format: functional
Haemophilus influenzae = test: Antibacterial activity against Haemophilus influenzae assessed as reduction in microbial growth by CLSI based broth microdilution method; format: functional
Streptococcus pneumoniae [16] = test: Antibacterial activity against levofloxacin-nonsusceptible Streptococcus pneumoniae assessed as reduction in microbial growth by CLSI based broth microdilution method; format: functional
Escherichia coli [17] = test: Antibacterial activity against Escherichia coli assessed as reduction in microbial growth by CLSI based broth microdilution method; format: functional

pIC50 (Topoisomerase IV): 6.52 | pIC50 [1]: 6.00 | pIC50 [2]: 6.70 | MIC (Staphylococcus aureus [3]): 0.12 to 1 µg/mL
SMILES: COc1ccc2ncc(F)c([C@@H](O)CC[C@@H]3CCN(CCSc4cccs4)C[C@@H]3C(=O)O)c2c1

MIC (Staphylococcus aureus [4]): 0.25 µg/mL | MIC (Escherichia coli [5]): 0.25 µg/mL
SMILES: CN1CC(Oc2cccc(-c3cccc(CNCC[C@@H]4CN(c5ccc6c(n5)NC(=O)CO6)C(=O)O4)c3)n2)C1

SMILES: O=c1ccc2ncc(=O)n3c2n1C[C@H]3CN1CCC(NCc2cc3c(cn2)OCCC3)CC1 [GEPOTIDACIN]
MIC90 (Escherichia coli [6]): 2 µg/mL | MIC90 (Escherichia coli [7]): 2 µg/mL | MIC90 (Streptococcus pneumoniae [8]): 0.25 µg/mL | MIC90 (Staphylococcus aureus [9]): 0.5 µg/mL | MIC90 (Neisseria gonorrhoeae): 0.25 µg/mL | MIC90 (Streptococcus pneumoniae [10]): 0.25 µg/mL | MIC90 (Staphylococcus aureus [11]): 0.5 µg/mL | MIC90 (Streptococcus pneumoniae [12]): 0.25 µg/mL | MIC90 (Staphylococcus aureus [13]): 0.5 µg/mL | MIC90 (Staphylococcus aureus [14]): 0.5 µg/mL | MIC90 (Streptococcus pneumoniae [15]): 0.25 µg/mL | MIC90 (Haemophilus influenzae): 1 µg/mL | MIC90 (Streptococcus pneumoniae [16]): 0.25 µg/mL | MIC90 (Escherichia coli [17]): 2 µg/mL

Source: ChEMBL document CHEMBL4616617, “Two Decades of Successful SAR-Grounded Stories of the Novel Bacterial Topoisomerase Inhibitors (NBTIs)” (J Med Chem, 2020)
